Results: ChEMBL document CHEMBL4602617, “Discovery and optimization of heteroaryl piperazines as potent and selective PI3Kδ inhibitors” (Bioorg Med Chem Lett, 2020)
pIC50: −log10 of the molar value.

Legend:
Focal adhesion kinase 1 = Focal adhesion kinase 1 (Homo sapiens, UniProt Q05397); assay: Inhibition of recombinant full length human GST-tagged PTK2 expressed in baculovirus expression system using tyr07 peptide as substrate incubated for 60 mins in presence of ATP by Z'-LYTE assay
Caspase-3 (Homo sapiens) = Caspase-3 (Homo sapiens) (UniProt P42574); assay: Inhibition of recombinant full-length human caspase 3 expressed in Escherichia coli at 10 uM using Ac-DEVD-AMC as substrate after 60 mins by spectrophotometric analysis relative to control
[1] = molecular target: AMP-activated protein kinase (AMPK) alpha-1/beta-1/gamma-1 (Homo sapiens, UniProt P54619+Q13131+Q9Y478); assay: Inhibition of recombinant full length GST/His-tagged human AMPK alpha1/beta1/gamma1 expressed in insect cells using Ser/Thr-23 peptide as substrate incubated for 60 mins in presence of ATP by Z'-LYTE assay
Cytochrome P450 2D6 = Cytochrome P450 2D6 (Homo sapiens, UniProt P10635); assay: Inhibition of CYP2D6 (unknown origin)
[2] = molecular target: NUAK family SNF1-like kinase 1 (Homo sapiens, UniProt O60285); assay: Inhibition of recombinant full length His-tagged human NUAK1 expressed in baculovirus expression system using CHKtide as substrate after 1 hr in presence of ATP by Adapta assay
[3] = molecular target: Histamine H2 receptor (Homo sapiens) (UniProt P25021); assay: Displacement of [125I]aminopotentidine from full length human recombinant histamine H2 receptor expressed in CHO-K1 cells at 10 uM measured after 120 mins by radiometric scintillation analysis relative to control; assay type: cell-based
Chain of Histamine H2 receptor (Homo sapiens) (P25021 whole entry, the tested form may be a part): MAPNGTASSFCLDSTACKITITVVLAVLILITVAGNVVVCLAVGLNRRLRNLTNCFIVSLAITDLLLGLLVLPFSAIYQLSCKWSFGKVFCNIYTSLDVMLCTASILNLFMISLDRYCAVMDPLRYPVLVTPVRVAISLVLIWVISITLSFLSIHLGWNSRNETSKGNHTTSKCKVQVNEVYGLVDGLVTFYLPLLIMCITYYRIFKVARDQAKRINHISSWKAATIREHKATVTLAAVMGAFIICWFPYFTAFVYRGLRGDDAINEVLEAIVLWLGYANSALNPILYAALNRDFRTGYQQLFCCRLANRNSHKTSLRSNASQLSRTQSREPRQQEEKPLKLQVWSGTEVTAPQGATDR

[4] = molecular target: Phosphatidylinositol 4-phosphate 3-kinase C2 domain-containing subunit alpha (Homo sapiens, UniProt O00443); assay: Inhibition of recombinant full length human N-terminal GST-tagged PIK3C2alpha catalytic domain expressed in baculovirus expression system using PI lipid as substrate incubated for 60 mins in presence of ATP by Adapta assay
Chain of Phosphatidylinositol 4-phosphate 3-kinase C2 domain-containing subunit alpha (O00443 whole entry, looked up, the tested form may be a part): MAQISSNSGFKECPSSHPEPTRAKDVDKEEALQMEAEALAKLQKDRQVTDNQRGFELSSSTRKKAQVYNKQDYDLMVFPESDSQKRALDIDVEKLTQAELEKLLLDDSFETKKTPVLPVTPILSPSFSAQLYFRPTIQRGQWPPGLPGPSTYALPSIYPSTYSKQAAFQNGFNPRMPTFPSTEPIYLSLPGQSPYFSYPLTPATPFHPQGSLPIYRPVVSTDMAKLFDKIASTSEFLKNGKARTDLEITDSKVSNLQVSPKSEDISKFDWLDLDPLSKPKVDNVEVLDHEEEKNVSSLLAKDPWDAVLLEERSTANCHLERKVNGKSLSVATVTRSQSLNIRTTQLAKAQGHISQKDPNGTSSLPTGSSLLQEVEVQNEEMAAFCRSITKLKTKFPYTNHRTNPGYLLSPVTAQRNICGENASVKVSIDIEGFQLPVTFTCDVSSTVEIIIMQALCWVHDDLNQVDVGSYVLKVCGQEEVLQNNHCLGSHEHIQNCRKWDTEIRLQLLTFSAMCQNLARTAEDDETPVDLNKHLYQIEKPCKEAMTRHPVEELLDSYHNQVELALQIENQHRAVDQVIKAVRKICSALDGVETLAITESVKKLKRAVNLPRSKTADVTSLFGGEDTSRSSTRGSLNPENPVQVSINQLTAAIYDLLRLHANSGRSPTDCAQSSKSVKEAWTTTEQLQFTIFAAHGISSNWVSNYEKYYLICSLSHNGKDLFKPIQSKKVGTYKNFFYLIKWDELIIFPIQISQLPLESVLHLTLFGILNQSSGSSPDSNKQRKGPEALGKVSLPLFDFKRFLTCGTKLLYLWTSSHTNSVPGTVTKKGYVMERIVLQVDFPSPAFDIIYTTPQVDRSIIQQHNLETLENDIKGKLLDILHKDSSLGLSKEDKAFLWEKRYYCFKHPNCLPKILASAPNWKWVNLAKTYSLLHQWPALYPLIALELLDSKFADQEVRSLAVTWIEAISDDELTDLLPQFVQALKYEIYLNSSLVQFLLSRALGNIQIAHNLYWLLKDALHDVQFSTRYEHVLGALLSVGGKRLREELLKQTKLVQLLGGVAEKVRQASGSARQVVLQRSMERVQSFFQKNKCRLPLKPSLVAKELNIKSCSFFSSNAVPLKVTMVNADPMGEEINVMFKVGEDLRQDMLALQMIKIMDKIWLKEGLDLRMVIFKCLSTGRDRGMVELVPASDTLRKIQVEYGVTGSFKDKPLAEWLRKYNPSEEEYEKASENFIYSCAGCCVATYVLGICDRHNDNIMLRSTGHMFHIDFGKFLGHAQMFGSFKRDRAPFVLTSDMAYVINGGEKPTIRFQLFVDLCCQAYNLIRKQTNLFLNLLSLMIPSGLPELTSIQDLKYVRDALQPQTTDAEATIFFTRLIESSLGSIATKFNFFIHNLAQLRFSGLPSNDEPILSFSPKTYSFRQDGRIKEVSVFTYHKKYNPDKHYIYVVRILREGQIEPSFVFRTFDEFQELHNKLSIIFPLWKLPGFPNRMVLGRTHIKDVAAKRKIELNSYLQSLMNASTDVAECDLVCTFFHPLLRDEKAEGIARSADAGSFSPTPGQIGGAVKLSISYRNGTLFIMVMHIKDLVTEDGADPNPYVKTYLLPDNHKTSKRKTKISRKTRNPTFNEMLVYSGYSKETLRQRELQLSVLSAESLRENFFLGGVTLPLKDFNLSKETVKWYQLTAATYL

[5] = molecular target: Receptor-type tyrosine-protein kinase FLT3 (Homo sapiens, UniProt P36888); assay: Inhibition of recombinant human His-tagged FLT3 cytoplasmic domain (564 to 958 residues) expressed in baculovirus expression system using tyrosine-2 peptide as substrate incubated for 60 mins in presence of ATP by Z'-LYTE assay
[6] = molecular target: Casein kinase I isoform delta (Homo sapiens, UniProt P48730); assay: Inhibition of recombinant human full-length GST-tagged CSNK1D expressed in baculovirus expression system using FRET-labeled Ser/Thr 11 peptide as substrate measured after 1 hr in presence of ATP by Z'-lyte assay
Chain of Casein kinase I isoform delta (P48730 whole entry, the tested form may be a part, canonical isoform): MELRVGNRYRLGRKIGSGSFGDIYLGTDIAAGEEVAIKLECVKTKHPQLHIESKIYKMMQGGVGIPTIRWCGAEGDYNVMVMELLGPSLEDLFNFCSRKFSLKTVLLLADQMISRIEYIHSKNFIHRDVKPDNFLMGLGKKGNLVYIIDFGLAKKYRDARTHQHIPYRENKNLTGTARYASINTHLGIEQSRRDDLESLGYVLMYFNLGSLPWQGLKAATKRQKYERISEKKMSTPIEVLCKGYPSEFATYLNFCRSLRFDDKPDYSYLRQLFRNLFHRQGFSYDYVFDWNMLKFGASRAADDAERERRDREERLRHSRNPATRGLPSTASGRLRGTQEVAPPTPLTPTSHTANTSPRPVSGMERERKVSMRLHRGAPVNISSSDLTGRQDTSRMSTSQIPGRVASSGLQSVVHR

Ephrin type-A receptor 2 = Ephrin type-A receptor 2 (Homo sapiens, UniProt P29317); assay: Inhibition of recombinant human GST-tagged EPHA2 cytoplasmic domain expressed in baculovirus expression system using tyrosine-01 peptide as substrate incubated for 60 mins in presence of ATP by Z'-Lyte assay
[7] = molecular target: Protein kinase C iota type (Homo sapiens, UniProt P41743); assay: Inhibition of recombinant full length human His-tagged PRKCI expressed in baculovirus expression system using serine/threonine-7 peptide as substrate incubated for 60 mins in presence of ATP by Z'-LYTE assay
[8] = molecular target: Protein kinase C theta type (Homo sapiens, UniProt Q04759); assay: Inhibition of recombinant full length human His-tagged PKCtheta expressed in baculovirus expression system using serine/threonine-7 peptide as substrate incubated for 60 mins in presence of ATP by Z'-LYTE assay
[9] = molecular target: Dual specificity protein kinase CLK1 (Homo sapiens, UniProt P49759); assay: Inhibition of recombinant human GST-tagged CLK1 catalytic domain (129 to 484 residues) expressed in Escherichia coli expression system using serine/threonine-9 peptide as substrate incubated for 60 mins in presence of ATP by Z'-LYTE assay
[10] = molecular target: Vasopressin V1a receptor (Homo sapiens) (UniProt P37288); assay: Displacement of [125I]phenylacetylTyr(Me)PheGlnAsnArgProArgTyr from recombinant full length human V1A receptor expressed in HEK293 cells at 10 uM after 120 mins by radiometric scintillation analysis relative to control; assay type: cell-based
[11] = molecular target: Muscarinic acetylcholine receptor M5 (Homo sapiens) (UniProt P08912); assay: Displacement of [3H]N-Methylscopolamine from full length human recombinant Muscarinic M5 receptor expressed in CHOK1 cells at 10 uM measured after 120 mins by radiometric scintillation analysis relative to control; assay type: cell-based; settings: CHO-K1
[12] = molecular target: Protein-tyrosine kinase 2-beta (Homo sapiens, UniProt Q14289); assay: Inhibition of recombinant full length human N-terminal GST-tagged PTK2B cytoplasmic domain expressed in baculovirus expression system using tyr01 peptide as substrate incubated for 60 mins in presence of ATP by Z'-LYTE assay
[13] = molecular target: Serine/threonine-protein kinase Nek4 (Homo sapiens, UniProt P51957); assay: Inhibition of recombinant full length human GST-tagged NEK4 expressed in baculovirus expression system using serine/threonine-7 peptide as substrate incubated for 60 mins in presence of ATP by Z'-LYTE assay
Chain of Serine/threonine-protein kinase Nek4 (P51957 whole entry): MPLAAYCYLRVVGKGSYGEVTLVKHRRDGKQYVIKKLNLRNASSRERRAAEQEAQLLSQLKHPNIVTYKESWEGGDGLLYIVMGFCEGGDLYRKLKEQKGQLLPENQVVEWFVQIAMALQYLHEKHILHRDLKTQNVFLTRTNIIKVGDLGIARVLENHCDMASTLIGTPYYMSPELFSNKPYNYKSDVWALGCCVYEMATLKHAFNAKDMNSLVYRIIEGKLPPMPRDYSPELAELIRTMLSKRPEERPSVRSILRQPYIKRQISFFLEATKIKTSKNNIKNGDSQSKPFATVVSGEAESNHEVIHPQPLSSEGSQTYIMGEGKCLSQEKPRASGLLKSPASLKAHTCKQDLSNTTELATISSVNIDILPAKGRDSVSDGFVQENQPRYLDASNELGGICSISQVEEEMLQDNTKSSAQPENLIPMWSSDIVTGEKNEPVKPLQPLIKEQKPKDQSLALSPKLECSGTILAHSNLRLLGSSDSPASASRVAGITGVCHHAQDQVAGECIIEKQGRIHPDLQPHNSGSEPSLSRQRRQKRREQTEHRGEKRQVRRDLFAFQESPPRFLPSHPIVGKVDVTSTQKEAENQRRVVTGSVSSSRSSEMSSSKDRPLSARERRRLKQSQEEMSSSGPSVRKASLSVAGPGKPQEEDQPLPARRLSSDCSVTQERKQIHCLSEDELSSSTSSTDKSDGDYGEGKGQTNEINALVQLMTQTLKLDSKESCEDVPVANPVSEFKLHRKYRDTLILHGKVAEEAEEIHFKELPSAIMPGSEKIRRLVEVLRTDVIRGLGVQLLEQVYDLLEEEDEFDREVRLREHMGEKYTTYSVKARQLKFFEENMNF

[14] = molecular target: Serine/threonine-protein kinase 25 (Homo sapiens, UniProt O00506); assay: Inhibition of recombinant full length human GST-tagged YSK1 expressed in baculovirus expression system using serine/threonine-7 peptide as substrate incubated for 60 mins in presence of ATP by Z'-LYTE assay
Mesocricetus auratus = organism: Mesocricetus auratus; assay: Displacement of [3H]glyburide from KATP receptor in HIT-T15 Syrian hamster pancreatic B cell membranes at 10 uM after 120 mins by radiometric scintillation analysis relative to control
[15] = molecular target: Beta-1 adrenergic receptor (Homo sapiens) (UniProt P08588); assay: Displacement of [125I]cyanopindolol from full-length recombinant human beta1 adrenergic receptor expressed in CHOK1 cells at 10 uM measured after 120 mins by scintillation counting method relative to control; assay type: cell-based; settings: CHO-K1
Ephrin type-B receptor 1 = Ephrin type-B receptor 1 (Homo sapiens, UniProt P54762); assay: Inhibition of recombinant human GST-tagged EPHB1 catalytic domain expressed in baculovirus expression system using tyrosine-2 peptide as substrate incubated for 60 mins in presence of ATP by Z'-LYTE assay
Chain of Ephrin type-B receptor 1 (P54762 whole entry, the tested form may be a part): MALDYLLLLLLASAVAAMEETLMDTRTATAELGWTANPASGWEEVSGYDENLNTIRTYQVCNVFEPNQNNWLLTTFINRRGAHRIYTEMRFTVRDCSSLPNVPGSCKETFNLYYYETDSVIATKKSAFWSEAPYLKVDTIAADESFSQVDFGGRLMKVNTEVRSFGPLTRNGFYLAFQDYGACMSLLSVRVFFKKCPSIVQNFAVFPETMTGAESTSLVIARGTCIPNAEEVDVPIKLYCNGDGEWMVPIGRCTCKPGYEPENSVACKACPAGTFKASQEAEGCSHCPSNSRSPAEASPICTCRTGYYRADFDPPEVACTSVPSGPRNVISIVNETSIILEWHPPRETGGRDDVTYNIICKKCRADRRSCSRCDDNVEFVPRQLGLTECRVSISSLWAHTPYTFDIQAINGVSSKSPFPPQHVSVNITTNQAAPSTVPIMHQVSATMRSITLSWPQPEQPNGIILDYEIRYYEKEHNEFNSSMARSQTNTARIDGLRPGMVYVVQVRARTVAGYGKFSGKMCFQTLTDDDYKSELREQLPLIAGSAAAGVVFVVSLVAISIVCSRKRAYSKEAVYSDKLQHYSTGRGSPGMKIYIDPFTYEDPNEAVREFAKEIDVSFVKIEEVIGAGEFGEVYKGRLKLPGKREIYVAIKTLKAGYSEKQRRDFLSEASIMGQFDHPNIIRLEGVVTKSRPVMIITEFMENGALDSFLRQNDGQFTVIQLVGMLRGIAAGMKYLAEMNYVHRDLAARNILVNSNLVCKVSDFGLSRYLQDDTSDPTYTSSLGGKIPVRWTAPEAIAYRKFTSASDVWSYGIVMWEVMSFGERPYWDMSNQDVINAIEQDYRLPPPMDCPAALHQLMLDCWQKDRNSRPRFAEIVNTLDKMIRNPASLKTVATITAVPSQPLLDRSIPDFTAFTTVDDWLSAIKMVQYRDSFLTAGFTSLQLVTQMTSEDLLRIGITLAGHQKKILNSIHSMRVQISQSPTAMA

[16] = molecular target: Serine/threonine-protein kinase PAK 5 (Homo sapiens, UniProt Q9P286); assay: Inhibition of recombinant human His-tagged PAK7 catalytic domain (425 to 719 residues) expressed in baculovirus expression system using serine/threonine-20 peptide as substrate incubated for 60 mins in presence of ATP by Z'-LYTE assay
Chain of Serine/threonine-protein kinase PAK 5 (Q9P286 whole entry, the tested form may be a part): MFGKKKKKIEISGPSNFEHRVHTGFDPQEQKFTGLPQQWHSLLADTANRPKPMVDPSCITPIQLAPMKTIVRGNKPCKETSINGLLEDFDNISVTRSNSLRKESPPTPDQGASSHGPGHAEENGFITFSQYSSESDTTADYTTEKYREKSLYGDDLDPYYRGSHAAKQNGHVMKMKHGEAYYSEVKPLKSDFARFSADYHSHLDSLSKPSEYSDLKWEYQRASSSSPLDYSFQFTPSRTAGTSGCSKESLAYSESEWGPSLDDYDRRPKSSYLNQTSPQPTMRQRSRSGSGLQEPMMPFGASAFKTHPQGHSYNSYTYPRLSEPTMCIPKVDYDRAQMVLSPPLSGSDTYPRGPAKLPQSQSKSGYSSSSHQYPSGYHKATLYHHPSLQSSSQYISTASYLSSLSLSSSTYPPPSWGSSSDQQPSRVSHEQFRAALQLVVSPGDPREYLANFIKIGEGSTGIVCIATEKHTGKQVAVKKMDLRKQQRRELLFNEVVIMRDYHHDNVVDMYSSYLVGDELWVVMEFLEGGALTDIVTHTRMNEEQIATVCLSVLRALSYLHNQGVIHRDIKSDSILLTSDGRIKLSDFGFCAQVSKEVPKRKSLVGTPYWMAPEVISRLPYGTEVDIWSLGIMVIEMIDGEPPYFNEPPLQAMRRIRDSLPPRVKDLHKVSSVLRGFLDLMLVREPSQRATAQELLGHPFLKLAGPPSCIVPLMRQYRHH

Misshapen-like kinase 1 = Misshapen-like kinase 1 (Homo sapiens, UniProt Q8N4C8); assay: Inhibition of recombinant human MINK1 catalytic domain expressed in baculovirus expression system using Ser/Thr 07 peptide as substrate after 1 hr in presence of ATP by Z'LYTE assay
[17] = Clearance in dog plasma at 0.5 mg/kg, iv or 1 mg/kg, po; assay type: ADME, organism-based, Canis lupus familiaris
[18] = molecular target: Tyrosine-protein kinase Fgr (Homo sapiens, UniProt P09769); assay: Inhibition of recombinant full length human C-terminal His-tagged FGR expressed in baculovirus expression system using tyrosine-2 peptide as substrate incubated for 60 mins in presence of ATP by Z'-LYTE assay

C[C@@H]1C[C@H]1C(=O)N1CCN(c2cnc(C#N)c(-c3cnn(C)c3)n2)C[C@H]1C
pIC50 (Focal adhesion kinase 1): < 4.00
inhibition (Caspase-3 (Homo sapiens)): 0%
pIC50 [1]: < 4.00
pIC50 (Cytochrome P450 2D6): < 4.30
pIC50 [2]: < 4.00
inhibition [3]: 6%
pIC50 [4]: < 4.00
pIC50 [5]: < 4.00
pIC50 [6]: < 4.00
pIC50 (Ephrin type-A receptor 2): < 4.00
pIC50 [7]: < 4.00
pIC50 [8]: < 4.00
pIC50 [9]: < 4.00
inhibition [10]: -3%
inhibition [11]: 1%
pIC50 [12]: < 4.00
pIC50 [13]: < 4.00
pIC50 [14]: < 4.00
inhibition (Mesocricetus auratus): -1%
inhibition [15]: 4%
pIC50 (Ephrin type-B receptor 1): 4.42
pIC50 [16]: < 4.00
pIC50 (Misshapen-like kinase 1): 4.59
clearance [17]: 8 mL/min/kg
pIC50 [18]: 4.60
